In data set [1] the test system is SF295 (central nervous system tumor). Kind of data set: NCI method SRB growth inhibition, SF295. Type of data set: cell-based. Particulars: Homo sapiens, SF-295; SF295, treated 48 hours, SRB stain. Summed up: (§1)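 Cells were exposed to compound for 48 h alongside a time-zero plate fixed at dosing and a 48 h vehicle control, then stained with sulforhodamine B and read at 515 nm. GI50 is the concentration giving 50% growth relative to time-zero and vehicle ODs; TGI where test OD equals time-zero OD; LC50 where 50% of starting cells are killed.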

Data set [2] relates to A549 (non-small cell lung cancer). The data set can be described thus: NCI method SRB growth inhibition, A549. The class given is cell-based. Particulars: Homo sapiens; A549, treated 48 hours, SRB stain. The method in brief: as §1
For the next data set, the system named is 786-0 (renal cancer). The data set can be described thus: NCI method SRB growth inhibition, 786-0. Particulars: Homo sapiens; 786-0, treated 48 hours, SRB stain. Type of data set: cell-based. The method in brief: as §1
Data set [3] is described as follows: Liver microsomes stability. Type of data set: in vitro ADME, human. Particulars: 1 μM compound, 1 mg/mL human liver microsomes, 1 mM NADPH; for half-life at 1 μM: human, human liver microsomes, read-out: T½ of HLM. Summed up: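 Compound at 1 μM final incubated with 1 mg/mL human liver microsomes and 1 mM NADPH (no-NADPH control), sampled at 0, 5, 15, 30, 60 min. Remaining parent quantified by LC-MS/MS; T1/2 = 0.693/k.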

A further data set has as its system K562 (leukemia). Kind of data set: NCI method SRB growth inhibition, K562. Type of data set: cell-based. Particulars: Homo sapiens; K562, treated 48 hours, SRB stain. Summed up:
as §1

The subject of a further data set is PC-3 (prostate cancer). Kind of data set: NCI method SRB growth inhibition, PC-3. The class given is cell-based. Particulars: Homo sapiens; PC-3, treated 48 hours, SRB stain. Summed up: as §1
Another data set relates to HS 578T (breast cancer). The data set can be described thus: NCI method SRB growth inhibition, HS 578T. The class given is cell-based. Particulars: Homo sapiens, HS578T, treated 48 hours, SRB stain. Summed up: as §1
The subject of the next data set is OVCAR-3 (ovarian cancer). The data set can be described thus: NCI method SRB growth inhibition, OVCAR-3. Type of data set: cell-based. Particulars: Homo sapiens; OVCAR-3, treated 48 hours, SRB stain. Summed up:
as §1

For data set [4], the system named is breast cancer cell line SUM159 sphere. The data set can be described thus: Breast cancer stem cell sphere formation. The class given is cell-based, human. Particulars: 50 nM; for formation of the sphere after cell passage: 5 days of drug treatment, then passage. How it is done:
The inhibitory effects of embodiment compounds 5, 7, 11, 13, 14, 20 and 21 on the formation of breast cancer cell line SUM159 sphere are described as follows.
The breast cancer cell line SUM159 sphere was cultured with serum-free medium in an ultra-low adsorption plate, the basal medium was DMEM/F12 (without phenol red), and B27 (without vitamin A) (1×), EGF (20 ng/ml), bFGF (20 ng/ml) and insulin (insulin, 5 ug/ml) were added.
An equal number (4000) of SUM159 cells per well were inoculated into an ultra-low adsorption 24 plate, and the sphere was photographed after 5 days of culture, replaced with fresh medium, and treated with drugs at certain concentrations, respectively. Compounds 5, 7, 11, 13, 14, 20 and 21 were evaluated in this experiment at 50 nM, respectively. The effect of the drug on the sphere phenotype could be observed after about 3 days of drug treatment. The sphere was photographed again after 5 days of drug treatment, and then the sphere was passaged. The sphere was photographed again after 7 days of passage.
The differences of the photographs taken in three different stages were counted and compared, and the killing effect of the tested compounds on SUM159 sphere was evaluated through the differences of sphere formation after passage, thus reflecting the inhibitory effects of different compounds on breast cancer stem cells.

The next data set concerns LOX-IMVI (melanoma). The data set can be described thus: NCI method SRB growth inhibition, LOX-IMVI. The class given is cell-based. Particulars: Homo sapiens, treated 48 hours, SRB stain. Summed up: as §1
Another data set has as its system HCT116 (colon cancer). Kind of data set: NCI method SRB growth inhibition, HCT116. Particulars: Homo sapiens, HCT-116; HCT116, treated 48 hours, SRB stain. Type of data set: cell-based. The method in brief:
as §1

Take `[2H]C([2H])([2H])C([2H])([2H])N(C(=O)C[C@H]1C(=O)Nc2cc(NC(=O)c3cc(OC)c(OC)c(OC)c3Br)c(Oc3cc(C)cc(C)c3)cc2C(=O)N1C)C([2H])([2H])C([2H])([2H])[2H]` [Compound 11, (S)-2-bromo-N-[3-[2-[bis(pentadeuteroethyl)amino]-2-oxoethyl]-7-(3,5-dimethylphenoxy)-4-methyl-2,5-dioxo-2,3,4,5-tetrahydro-1H-benzo[e][1,4]diazepin-8-yl]-3,4,5-trimethoxybenzamide]: the GI50 in [1] was 10.9 nM; in data set [2], < 5 nM; with 786-0 (renal cancer) it was 10.4 nM; in the data set on K562 (leukemia), < 5 nM; in the data set on PC-3 (prostate cancer), < 5 nM; in the data set on HS 578T (breast cancer), < 5 nM. The results for the 50% growth inhibitory concentration (GI50) with OVCAR-3 (ovarian cancer), in the data set on LOX-IMVI (melanoma) and with HCT116 (colon cancer) were < 5 nM, < 5 nM and 15.7 nM, respectively. In data set [3], this compound came in with a microsomal CLint at 1 μM of 28.2 µL/min/mg. Moreover, the half-life at 1 μM in [3] came out at 24.6 min. Also, the “killing effect on SUM159 sphere” value in data set [4] is listed as “strong killing effect”. The “formation of the sphere after cell passage” value (“formation of the sphere” for short) in [4] is given as “significantly reduced”.
`[2H]C([2H])([2H])C([2H])([2H])N(C(=O)C[C@@H]1NC(=O)c2cc(Oc3cc(C)cc(C)c3)c(NC(=O)c3cc(OC)c(OC)c(OC)c3Br)cc2NC1=O)C([2H])([2H])C([2H])([2H])[2H]` [Compound 7, (S)-2-bromo-N-[3-[2-[bis(pentadeuteroethyl)amino]-2-oxoethyl]-7-(3,5-dimethylphenoxy)-2,5-dioxo-2,3,4,5-tetrahydro-1H-benzo[e][1,4]diazepin-8-yl]-3,4,5-trimethoxybenzamide]: the 50% growth inhibitory concentration (GI50) was < 5 nM in [1]; < 5 nM in data set [2]; 6.5 nM with 786-0 (renal cancer); < 5 nM with PC-3 (prostate cancer); 8.2 nM in the data set on HS 578T (breast cancer); < 5 nM in the data set on OVCAR-3 (ovarian cancer). The GI50 in the data set on LOX-IMVI (melanoma) and in the data set on HCT116 (colon cancer) was < 5 nM each time. The same compound had a microsomal CLint at 1 μM in data set [3] of 13.9 µL/min/mg. The half-life at 1 μM in data set [3] was 49.9 min. Moreover, the “killing effect on SUM159 sphere” value in data set [4] is listed as “strong killing effect”. In addition, the “formation of the sphere” value in data set [4] is listed as “significantly reduced”.
Turning to `[2H]C([2H])([2H])Oc1cc(C(=O)Nc2cc3c(cc2Oc2cc(C)cc(C)c2)C(=O)N[C@@H](CC(=O)N(C([2H])([2H])[2H])C([2H])([2H])[2H])C(=O)N3)c(Br)c(OC([2H])([2H])[2H])c1OC([2H])([2H])[2H]` [Compound 21, (S)-2-bromo-N-[3-[2-[bis(trideuteromethyl)amino]-2-oxoethyl]-7-(3,5-dimethylphenoxy)-2,5-dioxo-2,3,4,5-tetrahydro-1H-benzo[e][1,4]diazepin-8-yl]-3,4,5-tris(trideuteromethoxy)benzamide], the concentration for 50% growth inhibition (GI50) in data set [1] was 11.3 nM; in data set [2] it was 6.1 nM; with 786-0 (renal cancer), 12.9 nM; in the data set on K562 (leukemia), < 5 nM; in the data set with PC-3 (prostate cancer), < 5 nM; in the data set with OVCAR-3 (ovarian cancer), < 5 nM. For the same compound, the GI50 with LOX-IMVI (melanoma) and in the data set with HCT116 (colon cancer) was < 5 nM in each case. Besides, in data set [4], the “killing effect on SUM159 sphere” value is reported as “strong killing effect”. Besides, the “formation of the sphere” value in [4] is “significantly reduced”.
Take `[2H]C([2H])([2H])Oc1cc(C(=O)Nc2cc3c(cc2Oc2cc(C)cc(C)c2)C(=O)N[C@@H](CC(=O)N(OC)C([2H])([2H])[2H])C(=O)N3)c(Br)c(OC([2H])([2H])[2H])c1OC([2H])([2H])[2H]` [Compound 41]: the GI50 (in [1]; in data set [2]; with 786-0 (renal cancer); in the data set on K562 (leukemia); in the data set on PC-3 (prostate cancer); with HS 578T (breast cancer)) was < 5 nM in each case. The 50% growth inhibitory concentration (GI50) with OVCAR-3 (ovarian cancer), in the data set with LOX-IMVI (melanoma) and in the data set on HCT116 (colon cancer) was < 5 nM each time. This compound showed a microsomal CLint at 1 μM in data set [3] of 7.6 µL/min/mg. Further, in data set [3], the half-life at 1 μM came to 91.2 min.
Regarding `[2H]C([2H])([2H])Oc1cc(C(=O)Nc2cc3c(cc2Oc2cc(C)cc(C)c2)C(=O)N(C)[C@@H](CC(=O)N(C([2H])([2H])C([2H])([2H])[2H])C([2H])([2H])C([2H])([2H])[2H])C(=O)N3)c(Br)c(OC([2H])([2H])[2H])c1OC([2H])([2H])[2H]` [Compound 13, (S)-2-bromo-N-[3-[2-[bis(pentadeuteroethyl)amino]-2-oxoethyl]-7-(3,5-dimethylphenoxy)-4-methyl-2,5-dioxo-2,3,4,5-tetrahydro-1H-benzo[e][1,4]diazepin-8-yl]-3,4,5-tris(trideuteromethoxy)benzamide], the GI50 in data set [1] was 7.5 nM; in data set [2], < 5 nM; with 786-0 (renal cancer), 11.5 nM; in the data set on K562 (leukemia), < 5 nM; with PC-3 (prostate cancer), < 5 nM; in the data set on HS 578T (breast cancer) it was < 5 nM. Further, the GI50 in the data set with OVCAR-3 (ovarian cancer), with LOX-IMVI (melanoma) and with HCT116 (colon cancer) was < 5 nM throughout. Besides, the microsomal CLint at 1 μM in [3] stood at 14.8 µL/min/mg. Also, in data set [3], the half-life at 1 μM was 46.8 min. Besides, the “killing effect on SUM159 sphere” value in [4] is reported as “strong killing effect”. For the same compound, the “formation of the sphere” value in [4] is “significantly reduced”.
Turning to `[2H]C([2H])([2H])c1cc(Oc2cc3c(cc2NC(=O)c2cc(OC)c(OC)c(OC)c2Cl)NC(=O)[C@H](CC(=O)N(CC)CC)NC3=O)cc(C([2H])([2H])[2H])c1` [Compound 23, (S)-2-chloro-N-[3-[2-(diethylamino)-2-oxoethyl]-7-[3,5-bis(trideuteromethyl)phenoxy]-2,5-dioxo-2,3,4,5-tetrahydro-1H-benzo[e][1,4]diazepin-8-yl]-3,4,5-trimethoxybenzamide], the concentration for 50% growth inhibition (GI50) was 10.5 nM in data set [1]; 11.6 nM in data set [2]; 67.5 nM in the data set on 786-0 (renal cancer); < 5 nM in the data set with K562 (leukemia); 6.1 nM in the data set with PC-3 (prostate cancer); 24.9 nM in the data set with HS 578T (breast cancer). Further, the GI50 is 6.6 nM in the data set with OVCAR-3 (ovarian cancer), < 5 nM with LOX-IMVI (melanoma) and < 5 nM with HCT116 (colon cancer). The microsomal CLint at 1 μM in [3] was found to be 26.9 µL/min/mg. In addition, the half-life at 1 μM in data set [3] was 25.8 min.
As for `[2H]C([2H])([2H])Oc1cc(C(=O)Nc2cc3c(cc2Oc2cc(C)cc(C)c2)C(=O)N(C)[C@@H](CC(=O)N(C([2H])([2H])[2H])C([2H])([2H])[2H])C(=O)N3)c(Br)c(OC([2H])([2H])[2H])c1OC([2H])([2H])[2H]` [Compound 14, (S)-2-bromo-N-[3-[2-[bis(trideuteromethyl)amino]-2-oxoethyl]-7-(3,5-dimethylphenoxy)-4-methyl-2,5-dioxo-2,3,4,5-tetrahydro-1H-benzo[e][1,4]diazepin-8-yl]-3,4,5-tris(trideuteromethoxy)benzamide], the 50% growth inhibitory concentration (GI50) in data set [1] was < 5 nM; in [2], < 5 nM; with 786-0 (renal cancer), 5 nM; in the data set with K562 (leukemia), < 5 nM; in the data set on PC-3 (prostate cancer), < 5 nM; with OVCAR-3 (ovarian cancer), < 5 nM. Also, the GI50 in the data set with LOX-IMVI (melanoma) and in the data set on HCT116 (colon cancer) was < 5 nM throughout. In data set [3], this compound showed a microsomal CLint at 1 μM of 11.3 µL/min/mg. Moreover, the half-life at 1 μM in data set [3] came to 61.3 min. Also, the “killing effect on SUM159 sphere” value in [4] was “strong killing effect”. In data set [4], the “formation of the sphere” value is on record as “significantly reduced”.

Source of the values: patent US12577213B2 (NINGBO COMBIREG PHARMACEUTICAL TECHNOLOGY CO., LTD., priority 2020, dated 2026).
